Counter-ions that a name gives are not always drawn.

The target in the assay is T1, human β-Secretase (Homo sapiens, UniProt P56817).
T1 construct: The soluble part of the human β-Secretase (AA 1-AA 460) was cloned; made in house
T1 sequence (P56817 22-460): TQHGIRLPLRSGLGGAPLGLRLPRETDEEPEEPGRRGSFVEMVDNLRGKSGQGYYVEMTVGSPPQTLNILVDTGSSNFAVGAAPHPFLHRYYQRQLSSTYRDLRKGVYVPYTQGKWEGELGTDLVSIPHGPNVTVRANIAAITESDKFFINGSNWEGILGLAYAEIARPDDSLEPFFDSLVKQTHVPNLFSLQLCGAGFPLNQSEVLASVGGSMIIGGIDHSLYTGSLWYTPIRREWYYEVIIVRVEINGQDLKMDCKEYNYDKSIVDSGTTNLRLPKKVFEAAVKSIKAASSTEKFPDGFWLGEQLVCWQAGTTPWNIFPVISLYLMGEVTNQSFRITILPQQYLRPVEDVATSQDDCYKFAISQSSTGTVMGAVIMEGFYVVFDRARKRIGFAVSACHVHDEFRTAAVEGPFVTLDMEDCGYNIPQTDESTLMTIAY
Nature of the assay: TR-FRET assay. The class given is biochemical.
One may read the IC50 as the point on the concentration scale where inhibition reaches its midpoint. Higher therefore signals weaker potency. As to `NC1=NC(c2ccncc2)(c2cccc(-c3cncc(F)c3)c2)c2ccccc21` (centres unmarked) [Example 67, 1-[3-(5-Fluoropyridin-3-yl)phenyl]-1-pyridin-4-yl-1H-isoindol-3-amine 0.75 acetate], it took 92 nM to reach half-maximal inhibition (IC50). In the case of `COc1ccc(C2(c3ccc(O)c(-c4cccc(OC)c4)c3)N=C(N)c3ccccc32)cc1` (centres unmarked) [Example 4, 5-[3-Amino-1-(4-methoxy-phenyl)-1H-isoindol-1-yl]-3′-methoxy-biphenyl-2-ol trifluoroacetate] it was 67 nM; in that of `COc1ncc(C2(c3cccc(-c4cncnc4)c3)N=C(N)c3ccccc32)cn1` (centres unmarked) [Example 108, 1-(2-Methoxypyrimidin-5-yl)-1-(3-pyrimidin-5-ylphenyl)-1H-isoindol-3-amine], 970 nM; in that of `CC1(c2cccc(-c3cncc(F)c3)c2)N=C(N)c2ccccc21` (centres unmarked) [Example 98, 1-[3-(5-Fluoropyridin-3-yl)phenyl]-1-methyl-1H-isoindol-3-amine acetate], 2000 nM. To `CC1(c2cccc(-c3cccnc3F)c2)N=C(N)c2ccccc21` (centres unmarked) [Example 96, 1-[3-(2-Fluoropyridin-3-yl)phenyl]-1-methyl-1H-isoindol-3-amine acetate] belongs 2200 nM; to `COc1ccc(C2(c3cccc(Br)c3)N=C(N)c3ccccc32)cc1C` (centres unmarked) [Example 19, 3-(3-Bromo-phenyl)-3-(4-methoxy-3-methyl-phenyl)-3H-isoindol-1-ylamine trifluoroacetate], 1360 nM. `COc1ccc(C2(c3cccc(-c4ccc(C)o4)c3)N=C(N)c3ccccc32)cc1` (centres unmarked) [Example 54, 1-(4-Methoxyphenyl)-1-[3-(5-methyl-2-furyl)phenyl]-1H-isoindol-3-amine 0.5 acetate] registered a half-inhibitory concentration (IC50) of 1000 nM.

`COc1ccc(C2(c3ccc(F)c(-c4cncnc4)c3)N=C(N)c3ccccc32)cc1C` (centres unmarked) [Example 127, 1-(4-Fluoro-3-pyrimidin-5-ylphenyl)-1-(4-methoxy-3-methylphenyl)-1H-isoindol-3-amine]: 33 nM corresponded to half-maximal inhibition (IC50). In the case of `NC1=NC(c2cccc(OS(=O)(=O)C(F)(F)F)c2)(c2ccc(F)c(-c3cccnc3F)c2)c2ccccc21` (centres unmarked) [Example 135], the half-maximal inhibitory concentration (IC50) was found to be 269 nM. In the case of `NC1=NC(c2ccncc2)(c2cccc(-c3cccnc3F)c2)c2cc(F)ccc21` (centres unmarked) [Example 86, 6-Fluoro-1-[3-(2-fluoropyridin-3-yl)phenyl]-1-pyridin-4-yl-1H-isoindol-3-amine] it was 47 nM; in that of `NC1=NC(c2cccc(-c3cccnc3F)c2)(c2ccnc(F)c2)c2ccccc21` (centres unmarked) [Example 117, 1-(2-Fluoropyridin-4-yl)-1-[3-(2-fluoropyridin-3-yl)phenyl]-1H-isoindol-3-amine], 100 nM. To `CC1(c2cccc(-c3cncnc3)c2)N=C(N)c2ccccc21` (centres unmarked) [Example 95, 1-Methyl-1-(3-pyrimidin-5-ylphenyl)-1H-isoindol-3-amine acetate] belongs 2010 nM. As for `NC1=NC(c2cccc(OS(=O)(=O)c3c(F)cccc3F)c2)(c2cc(Cl)nc(Cl)c2)c2ccccc21` (centres unmarked) [Example 133, 3-[3-Amino-1-(2,6-dichloropyridin-4-yl)-1H-isoindol-1-yl]phenyl 2,6-difluorobenzenesulfonate], it took 3240 nM to reach half-maximal inhibition (IC50). To `COc1cncc(-c2cccc(C3(c4ccc5c(c4)OCCO5)N=C(N)c4ccccc43)c2)c1` (centres unmarked) [Example 16, 3-(2,3-Dihydrobenzo[b][1,4]dioxin-6-yl)-3-(3-(5-methoxypyridin-3-yl)phenyl)-3H-isoindol-1-amine trifluoroacetate] belongs 425 nM; to `COc1ccc(C2(c3cccc(-c4cccnc4F)c3)N=C(N)c3ccccc32)cc1C` (centres unmarked) [Example 24, 3-[3-(2-Fluoro-pyridin-3-yl)-phenyl]-3-(4-methoxy-3-methyl-phenyl)-3H-isoindol-1-ylamine trifluoroacetate], 54 nM; to `COc1ccc(C2(c3cccc(-c4cncc(OC)c4)c3)N=C(N)c3ccccc32)cc1` (centres unmarked) [Example 12, 3-(4-Methoxy-phenyl)-3-[3-(5-methoxy-pyridin-3-yl)-phenyl]-3H-isoindol-1-ylamine trifluoroacetate], 68 nM. In the case of `COc1ccc(C2(c3ccc(OS(=O)(=O)C(F)(F)F)c(-c4cccc(OC)c4)c3)N=C(N)c3ccccc32)cc1` (centres unmarked) [Example 3, Trifluoro-methanesulfonic acid 5-[3-amino-1-(4-methoxy-phenyl)-1H-isoindol-1-yl]-3′-methoxy-biphenyl-2-yl ester trifluoroacetate] it was 12000 nM. In the case of `NC1=NC(c2ccc(F)c(-c3cncnc3)c2)(c2ccncc2F)c2ccccc21` (centres unmarked) [Example 74, 1-(3-Fluoropyridin-4-yl)-1-(4-fluoro-3-pyrimidin-5-ylphenyl)-1H-isoindol-3-amine 1.25 acetate] it was 150 nM; in that of `NC1=NC(c2ccncc2)(c2cccc(-c3cncnc3)c2)c2cc(F)ccc21` (centres unmarked) [Example 84, 6-Fluoro-1-pyridin-4-yl-1-(3-pyrimidin-5-ylphenyl)-1H-isoindol-3-amine], 94 nM.

`CC(C)Cn1cc(-c2cccc(C3(c4ccncc4)N=C(N)c4ccccc43)c2)cn1` (centres unmarked) [Example 62, 1-[3-(1-Isobutyl-1H-pyrazol-4-yl)phenyl]-1-pyridin-4-yl-1H-isoindol-3-amine 0.25] returned an IC50 above 10000 nM. The compound `COc1cccc(-c2cccc(C3(c4ccc(OC)c(C)c4)N=C(N)c4ccccc43)c2)c1` (centres unmarked) [Example 20, 3-(3′-Methoxy-biphenyl-3-yl)-3-(4-methoxy-3-methyl-phenyl)-3H-isoindol-1-ylamine trifluoroacetate] displayed an IC50 of 101 nM. In the case of `NC1=NC(c2cccc(-c3cccnc3)c2)(c2ccc3c(c2)OCCO3)c2ccccc21` (centres unmarked) [Example 17, 3-(2,3-Dihydrobenzo[b][1,4]dioxin-6-yl)-3-(3-(pyridin-3-yl)phenyl)-3H-isoindol-1-amine trifluoroacetate] it was 1520 nM. To `COc1ccc(F)c(-c2cccc(C3(c4ccncc4F)N=C(N)c4ccccc43)c2)c1` (centres unmarked) [Example 99, 1-(2′-Fluoro-5′-methoxybiphenyl-3-yl)-1-(3-fluoropyridin-4-yl)-1H-isoindol-3-amine] belongs 220 nM.

In turn, `COc1ccc(C2(c3cccc(-c4cc(Cl)cc(Cl)c4)c3)N=C(N)c3ccccc32)cc1` (centres unmarked) [Example 88, 1-(3′,5′-Dichlorobiphenyl-3-yl)-1-(4-methoxyphenyl)-1H-isoindol-3-amine acetate] registered a concentration for half-maximal inhibition (IC50) of 65 nM. To `COc1ccc(C2(c3cccc(-c4cccc(OC)c4)c3)N=C(N)c3ccc(F)cc32)cc1` (centres unmarked) [Example 80, 6-Fluoro-1-(3′-methoxybiphenyl-3-yl)-1-(4-methoxyphenyl)-1H-isoindol-3-amine] belongs 84 nM. `CS(=O)(=O)Oc1ccc(C2(c3cccc(-c4cccnc4)c3)N=C(N)c3ccccc32)cc1` (centres unmarked) [Example 35, Methanesulfonic acid 4-[3-amino-1-(3-pyridin-3-yl-phenyl)-1H-isoindol-1-yl]-phenyl ester trifluoroacatete] had an IC50 of 950 nM. To `COc1ncc(C2(c3cccc(-c4cccc(OC)c4F)c3)N=C(N)c3ccccc32)cn1` (centres unmarked) [Example 109, 1-(2′-Fluoro-3′-methoxybiphenyl-3-yl)-1-(2-methoxypyrimidin-5-yl)-1H-isoindol-3-amine] belongs 750 nM. To `CC(C)C1(c2cccc(-c3cncnc3)c2)N=C(N)c2ccccc21` (centres unmarked) [Example 97, 1-Isopropyl-1-(3-pyrimidin-5-ylphenyl)-1H-isoindol-3-amine acetate] belongs 1000 nM. In the case of `NC1=NC(c2ccc(C(F)(F)F)nc2)(c2cccc(-c3cncnc3)c2)c2ccccc21` (centres unmarked) [Example 130, 1-(3-Pyrimidin-5-ylphenyl)-1-[6-(trifluoromethyl)pyridin-3-yl]-1H-isoindol-3-amine 0.66 acetate] it was 1300 nM; in that of `NC(=O)c1ccccc1-c1cccc(C2(c3ccncc3)N=C(N)c3ccccc32)c1` (centres unmarked) [Example 64, 3′-(3-Amino-1-pyridin-4-yl-1H-isoindol-1-yl)biphenyl-2-carboxamide 0.25 acetate], above 3100 nM. With `N#Cc1cncc(-c2cccc(C3(c4ccncc4)N=C(N)c4ccccc43)c2)c1` (centres unmarked) [Example 77, 5-[3-(3-Amino-1-pyridin-4-yl-1H-isoindol-1-yl)phenyl]nicotinonitrile acetate], it took 150 nM to reach half-maximal inhibition (IC50). In the case of `COc1ccc(C2(c3ccc(F)c(-c4cccnc4F)c3)N=C(N)c3ccccc32)cc1C` (centres unmarked) [Example 128, 1-[4-Fluoro-3-(2-fluoropyridin-3-yl)phenyl]-1-(4-methoxy-3-methylphenyl)-1H-isoindol-3-amine] it was 40 nM; in that of `NC1=NC(c2ccncc2)(c2cccc(-c3cccnc3)c2)c2ccccc21` (centres unmarked) [Example 44, 3-Pyridin-4-yl-3-(3-pyridin-3-yl-phenyl)-3H-isoindol-1-ylamine trifluoroacetate], 213 nM; in that of `COc1ccc(C2(c3ccc(O)c(-c4cccnc4)c3)N=C(N)c3ccccc32)cc1` (centres unmarked) [Example 7, 4-[3-Amino-1-(4-methoxy-phenyl)-1H-isoindol-1-yl]-2-pyridin-3-yl-phenol trifluoroacetate], 86 nM. To `COc1cccc(-c2cccc(C3(c4ccncc4)N=C(N)c4ccccc43)c2)c1` (centres unmarked) [Example 47, 3-(3′-Methoxy-biphenyl-3-yl)-3-pyridin-4-yl-3H-isoindol-1-ylamine trifluoroacetate] belongs 55 nM; to `NC1=NC(c2ccncc2)(c2cccc(-c3cccnc3)c2)c2cc(F)ccc21` (centres unmarked) [Example 83, 6-Fluoro-1-pyridin-4-yl-1-(3-pyridin-3-ylphenyl)-1H-isoindol-3-amine], 75 nM; to `COc1ccc(C2(c3cccc(-c4ccsc4C=O)c3)N=C(N)c3ccccc32)cc1` (centres unmarked) [Example 48, 3-{3-[3-Amino-1-(4-methoxyphenyl)-1H-isoindol-1-yl]phenyl}thiophene-2-carbaldehyde 1.5 acetate], 300 nM. Regarding `COc1cccc(-c2cccc(C3(c4ccc5c(c4)OCO5)N=C(N)c4ccccc43)c2)c1` (centres unmarked) [Example 33, 3-Benzo[1,3]dioxol-5-yl-3-(3′-methoxy-biphenyl-3-yl)-3H-isoindol-1-ylamine trifluoroacetate], the IC50 was found to be 1330 nM.
